Results taken from patent US11701372B2, “Inhalation formulations of 1'-cyano substituted carba-nucleoside analogs” (priority 2020, dated 2023).
Several values for one entry are separate records, joined by “and”; a condition that tells them apart may be missing. Equal values may be shown once. Read-outs that look alike come from different tables or passages of the source.

What was measured:
[1] = assay type: physicochemical
Experimental: For each condition, samples were staged at ambient and refrigerated conditions. Samples were analyzed for % assay/degs, appearance, reconstitution time, pH, and compared to T=0. The structures of the key impurities/metabolites are shown below.

[2] = In use testing of reconstituted solutions in IV bags and IV tubings; assay type: physicochemical
Description: The IV bags and IV tubings were sampled over time and tested for % assay/degradation.

CCC(CC)COC(=O)[C@H](C)N[P@](=O)(OC[C@H]1O[C@@](C(N)=O)(c2ccc3c(N)ncnn23)[C@H](O)[C@@H]1O)Oc1ccccc1 [Compound G]
0.06 % w/w: % assay/degradation ([2]; 30 mg (IV Bag), 2-8° C. 48 h) | % assay/degradation ([2]; 30 mg (IV Bag), Ambient 4 h) | % assay/degradation ([2]; 30 mg (IV Bag), Ambient 8 h) | % assay/degradation ([2]; 30 mg (IV Bag), Ambient 24 h) | % assay/degradation ([2]; 30 mg (IV Tube), Ambient 6 Hours) | % assay/degradation ([2]; 200 mg (IV Bag), 2-8° C. 48 h) | % assay/degradation ([2]; 200 mg (IV Bag), Ambient 4 h) | % assay/degradation ([2]; 200 mg (IV Bag), Ambient 8 h) | % assay/degradation ([2]; 200 mg (IV Bag), Ambient 24 h)
0.06%: % assay/degs ([1]; pH 4.0, T = 0)
0.05 % w/w: % assay/degradation ([2]; 30 mg (IV Bag), 2-8° C. 24 h) | % assay/degradation ([2]; 30 mg (IV Bag), T = 0 (2-8° C. series)) | % assay/degradation ([2]; 30 mg in 100 mL 0.9% Saline (IV Bag), T = 0 (Ambient series)) | % assay/degradation ([2]; 200 mg (IV Bag), 2-8° C. 24 h) | % assay/degradation ([2]; 200 mg (IV Bag), T = 0 (2-8° C. series)) | % assay/degradation ([2]; 200 mg (IV Tube), Ambient 6 h) | % assay/degradation ([2]; 200 mg in 100 mL 0.9% Saline (IV Bag), T = 0 (Ambient series))
0.00%: % assay/degs, difference from T = 0 ([1]; pH 1.8, 2-8° C., 2 h) | % assay/degs, difference from T = 0 ([1]; pH 1.8, 2-8° C., 3 h) | % assay/degs, difference from T = 0 ([1]; pH 1.8, 2-8° C., 8 h) | % assay/degs, difference from T = 0 ([1]; pH 1.8, 2-8° C., 24 h) | % assay/degs, difference from T = 0 ([1]; pH 1.8, 2-8° C., 48 h) | % assay/degs, difference from T = 0 ([1]; pH 1.8, Ambient, 1 h) | % assay/degs, difference from T = 0 ([1]; pH 1.8, Ambient, 2 h) | % assay/degs, difference from T = 0 ([1]; pH 1.8, Ambient, 3 h) | % assay/degs, difference from T = 0 ([1]; pH 1.8, Ambient, 8 h) | % assay/degs, difference from T = 0 ([1]; pH 1.8, Ambient, 24 h) | % assay/degs, difference from T = 0 ([1]; pH 1.8, Ambient, 48 h) | % assay/degs, difference from T = 0 ([1]; pH 2.0, 2-8° C., 2 h) | % assay/degs, difference from T = 0 ([1]; pH 2.0, 2-8° C., 3 h) | % assay/degs, difference from T = 0 ([1]; pH 2.0, 2-8° C., 8 h) | % assay/degs, difference from T = 0 ([1]; pH 2.0, 2-8° C., 24 h) | % assay/degs, difference from T = 0 ([1]; pH 2.0, 2-8° C., 48 h) | % assay/degs, difference from T = 0 ([1]; pH 2.0, Ambient, 1 h) | % assay/degs, difference from T = 0 ([1]; pH 2.0, Ambient, 2 h) | % assay/degs, difference from T = 0 ([1]; pH 2.0, Ambient, 3 h) | % assay/degs, difference from T = 0 ([1]; pH 2.0, Ambient, 8 h) | % assay/degs, difference from T = 0 ([1]; pH 2.0, Ambient, 24 h) | % assay/degs, difference from T = 0 ([1]; pH 2.0, Ambient, 48 h) | % assay/degs, difference from T = 0 ([1]; pH 3.5, 2-8° C., 2 h) | % assay/degs, difference from T = 0 ([1]; pH 3.5, 2-8° C., 8 h) | % assay/degs, difference from T = 0 ([1]; pH 3.5, 2-8° C., 24 h) | % assay/degs, difference from T = 0 ([1]; pH 3.5, 2-8° C., 48 h) | % assay/degs, difference from T = 0 ([1]; pH 3.5, 2-8° C., 72 h) | % assay/degs, difference from T = 0 ([1]; pH 3.5, 2-8° C., 96 h) | % assay/degs, difference from T = 0 ([1]; pH 3.5, 2-8° C., 168 h) | % assay/degs, difference from T = 0 ([1]; pH 3.5, Ambient, 2 h) | % assay/degs, difference from T = 0 ([1]; pH 3.5, Ambient, 8 h) | % assay/degs, difference from T = 0 ([1]; pH 3.5, Ambient, 24 h) | % assay/degs, difference from T = 0 ([1]; pH 3.5, Ambient, 48 h) | % assay/degs, difference from T = 0 ([1]; pH 3.5, Ambient, 72 h) | % assay/degs, difference from T = 0 ([1]; pH 3.5, Ambient, 96 h) | % assay/degs, difference from T = 0 ([1]; pH 3.5, Ambient, 168 h) | % assay/degs, difference from T = 0 ([1]; pH 3.8, 2-8° C., 7.2 h) | % assay/degs, difference from T = 0 ([1]; pH 3.8, 2-8° C., 24 h) | % assay/degs, difference from T = 0 ([1]; pH 3.8, 2-8° C., 96 h) | % assay/degs, difference from T = 0 ([1]; pH 3.8, 2-8° C., 168 h) | % assay/degs, difference from T = 0 ([1]; pH 3.8, Ambient, 7.2 h) | % assay/degs, difference from T = 0 ([1]; pH 3.8, Ambient, 24 h) | % assay/degs, difference from T = 0 ([1]; pH 3.8, Ambient, 96 h) | % assay/degs, difference from T = 0 ([1]; pH 3.8, Ambient, 168 h) | % assay/degs, difference from T = 0 ([1]; pH 4.0, 2-8° C., 7.2 h) | % assay/degs, difference from T = 0 ([1]; pH 4.0, 2-8° C., 24 h) | % assay/degs, difference from T = 0 ([1]; pH 4.0, 2-8° C., 96 h) | % assay/degs, difference from T = 0 ([1]; pH 4.0, 2-8° C., 168 h) | % assay/degs, difference from T = 0 ([1]; pH 4.0, Ambient, 7.2 h) | % assay/degs, difference from T = 0 ([1]; pH 4.0, Ambient, 24 h) | % assay/degs, difference from T = 0 ([1]; pH 4.0, Ambient, 96 h) | % assay/degs, difference from T = 0 ([1]; pH 4.0, Ambient, 168 h)
0.05%: % assay/degs ([1]; pH 1.8, T = 0) | % assay/degs ([1]; pH 2.0, T = 0) | % assay/degs ([1]; pH 3.5, T = 0) | % assay/degs ([1]; pH 3.8, T = 0)

Oc1ccccc1 [Phenol]
0.00% and 0.04% and 0.05%: % assay/degs, difference from T = 0 ([1]; pH 2)
0.00 % w/w: % assay/degradation [2]
0.00% and 0.04% and 0.08%: % assay/degs, difference from T = 0 ([1]; pH 1.8)
0.00%: % assay/degs ([1]; pH 1.8) | % assay/degs ([1]; pH 2) | % assay/degs ([1]; pH 3.5) | % assay/degs, difference from T = 0 ([1]; pH 3.5)
